Test results taken from patent US20170312305A1, “PHARMACEUTICAL EXTRACTS AND USES THEREOF” (UNIVERSITY OF SALFORD ENTERPRISES LIMITED, priority 2014, published 2017).

How the values were obtained:
[1] = test system: MDANQ01 cells; assay: MTT cell viability assay, MDANQ01 breast cancer cells; type: cell-based; conditions: MDANQ01, 96 hours, cisplatinum 1-25 μM
Procedure: (§1) The breast cancer cell MDA 468 and MDANQ01, K562 and human lymphoblastic cell line (MOLT-4) were grown in RPMI 1640 medium supplemented with 1% L-glutamine, 1% of 100 Units/ml penicillin and 0.1 mg/ml streptomycin and 10% inactivated FCS. While the […] cell line HeLa and fibroblast cell line 3T3 were grown in DMEM medium supplemented with 20% inactivated FCS, 1% L-glutamine, 1% of 100 units/ml penicillin & 0.1 mg/ml streptomycin. All cell lines were maintained in a humidified incubator with an atmosphere of 95% air and 5% CO2 at 37° C.
(§2) Cell viability was determined by the MTT (3-(4,5 dimethylthiazol2-yl)-2,5 diphenyltetrazolium bromide) test method. […] The metabolic activity of each well was determined by the (MTT) assay and compared to those of untreated cells. […] Cell viability was determined based on mitochondrial conversion of 3[4,5-dimethylthiazol-2-yl] […] The plates were gently agitated until the colour reaction was uniform and the absorbance was measured at 570 nm using a multi-well plate reader, Sigma Plot 2000 software was used for data analysis. The cell viability effects from exposure of cells to each concentration of crude whelk GAGs, commercial GAGs and cisplatinum were analysed as percentages of the control cell absorbance, which were obtained from control wells plated in RPMI, 1% L-glutamate and 10% FCS media. […]

[2] = test system: MDA-468 cells; assay: MTT cell viability assay, MDA-468 breast cancer cells; type: cell-based; conditions: MDA-468, 96 hours, cisplatinum 1-25 μM
Procedure: as §1, §2

Compound `N.N.[Cl][Pt][Cl]` [cisplatinum] has an IC50 [1] of 0.63 µM and an IC50 [2] of 0.88 µM.
